The record followed here is patent publication US9809574B2, “Isoindoline or isoquinoline compounds, a process for their preparation and pharmaceutical compositions containing them” (LES LABORATOIRES SERVIER, priority 2013, dated 2017).

The IC50 is the point on the concentration scale where inhibition reaches its midpoint.

Each structure is given as a SMILES string. Counter-ions that a name gives are not always drawn.

Experiment [1] addresses Bcl-2 protein (histag-Bcl-2, UniProtKB P10415) (Homo sapiens (Human), UniProt P10415). Description: Inhibition of Bcl-2 by the fluorescence polarisation technique. In kind it is binding. The following applies: fluorescence polarisation test; incubation for 2 hours; read-out: IC50 (nM) Bcl-2 FP. From the text: For partial inhibitors, the percentage fluorescence polarisation inhibition for a given concentration of the test compound is indicated.

Experiment [2] deals with RS4; 11 leukaemia cell line. Description: In vitro cytotoxicity, Microculture Tetrazolium Assay (MTT). In kind it is cell-based. Particulars: Homo sapiens, 11 cells exposed for 48 hours. Here is the method: The cytotoxicity studies were carried out on the RS4; 11 leukaemia cell line and on H146 small Cell Lung Carcinoma cell line. The cells are distributed onto microplates and exposed to the test compounds for 48 hours. The cell viability is then quantified by a colorimetric assay, the Microculture Tetrazolium Assay (Cancer Res., 1987, 47, 939-942).

Sequence of Bcl-2 protein (P10415 whole entry): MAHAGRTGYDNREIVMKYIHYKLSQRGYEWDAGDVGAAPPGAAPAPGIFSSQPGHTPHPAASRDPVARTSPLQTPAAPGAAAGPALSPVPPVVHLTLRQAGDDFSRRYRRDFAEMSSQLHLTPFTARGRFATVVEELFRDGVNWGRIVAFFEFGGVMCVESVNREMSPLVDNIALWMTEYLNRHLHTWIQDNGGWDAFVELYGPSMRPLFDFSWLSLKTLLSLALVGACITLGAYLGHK

Take `Cc1c(C(=O)N(C)c2ccc(O)cc2)cc(-c2cc3c(cc2C(=O)N2Cc4ccccc4C[C@H]2CN2CCOCC2)CN(C(=O)Oc2cccc(C(=O)O)c2)CC3)n1C` [Example 709, 3-(6-{4-[(4-Hydroxyphenyl)(methyl)carbamoyl]-1,5-dimethyl-1H-pyrrol-2-yl}-7-[(3S)-3-(morpholin-4-ylmethyl)-1,2,3,4-tetrahydroisoquinoline-2-carbonyl]-1,2,3,4-tetrahydroisoquinoline-2-carbonyloxy)benzoic acid]: the values for the IC50 in experiment [1] and in experiment [2] were 4.8 nM and above 150 nM, respectively.

For the compound `Cc1c(C(=O)N(C)c2ccc(O)cc2)cc(-c2cc3c(cc2C(=O)N2Cc4ccccc4C[C@H]2CN2CCOCC2)CN(C(=O)Oc2ccccc2)CC3)n1C` [Example 88, Phenyl 6-{4-[(4-hydroxyphenyl)(methyl)carbamoyl]-1,5-dimethyl-1H-pyrrol-2-yl}-7-[(3S)-3-(morpholin-4-ylmethyl)-1,2,3,4-tetrahydroisoquinoline-2-carbonyl]-1,2,3,4-tetrahydroisoquinoline-2-carboxylate hydrochloride], the values for the IC50 in experiment [1] and in experiment [2] were 3.5 nM and 3.9 nM, respectively.

As for `Cc1c(C(=O)N(C)c2ccc(O)cc2)cc(-c2cc3c(cc2C(=O)N2Cc4ccccc4C[C@H]2C)CN(C(=O)Cc2ccc(C#N)cc2)CC3)n1C` [Example 145, 5-{2-[2-(4-Cyanophenyl)acetyl]-7-[(3R)-3-methyl-1,2,3,4-tetrahydroisoquinoline-2-carbonyl]-1,2,3,4-tetrahydroisoquinolin-6-yl}-N-(4-hydroxyphenyl)-N,1,2-trimethyl-1H-pyrrole-3-carboxamide], the results for the half-maximal inhibitory concentration (IC50) in experiment [1] and in experiment [2] were 4.2 nM and 5.5 nM, respectively.

Consider `CN(C(=O)c1cc(-c2cc3c(cc2C(=O)N2Cc4ccccc4C[C@H]2CN2CCOCC2)CN(C(=O)Oc2ccc(C#N)cc2)CC3)n2c1CCCC2)c1ccc(O)cc1` [Example 127, 4-Cyanophenyl 6-{1-[(4-hydroxyphenyl)(methyl)carbamoyl]-5,6,7,8-tetrahydroindolizin-3-yl}-7-[(3S)-3-(morpholin-4-ylmethyl)-1,2,3,4-tetrahydroisoquinoline-2-carbonyl]-1,2,3,4-tetrahydroisoquinoline-2-carboxylate], for which the IC50 in experiment [1] was 3.3 nM; in experiment [2], 6.4 nM.

On to `C[C@@H]1Cc2ccccc2CN1C(=O)c1cc2c(cc1-c1cc(C(=O)N(C)c3ccc(O)cc3)c3n1CCCC3)CCN(C(=O)NC(C)(C)C)C2` [Example 48, N-tert-Butyl-6-{1-[(4-hydroxyphenyl)(methyl)carbamoyl]-5,6,7,8-tetrahydroindolizin-3-yl}-7-[(3R)-3-methyl-1,2,3,4-tetrahydroisoquinoline-2-carbonyl]-1,2,3,4-tetrahydroisoquinoline-2-carboxamide], for which the figures for the half-inhibitory concentration (IC50) in experiment [1] and in experiment [2] were 8.7 nM and 40 nM, respectively.

On to `C[C@@H]1Cc2ccccc2CN1C(=O)c1cc2c(cc1-c1cc(C(=O)N(C)c3ccc(O)cc3)c3n1CCCC3)CN(C(=O)OCc1cnc3[nH]ccc3c1)C2` [Example 64, 1H-pyrrolo[2,3-b]pyridin-5-ylmethyl 5-{1-[(4-hydroxyphenyl)(methyl)carbamoyl]-5,6,7,8-tetrahydroindolizin-3-yl}-6-[(3R)-3-methyl-1,2,3,4-tetrahydroisoquinoline-2-carbonyl]-2,3-dihydro-1H-isoindole-2-carboxylate], for which the IC50 in experiment [1] came out at 27 nM; in experiment [2], 204 nM.

Regarding `Cc1c(C(=O)N(C)c2ccc(O)cc2)cc(-c2cc3c(cc2C(=O)N2Cc4ccccc4C[C@H]2CN2CCOCC2)CN(C(=O)/C=C/c2ccc(Cl)c(Cl)c2)CC3)n1C` [Example 137, 5-{2-[(2E)-3-(3,4-dichlorophenyl)prop-2-enoyl]-7-[(3S)-3-(morpholin-4-ylmethyl)-1,2,3,4-tetrahydroisoquinoline-2-carbonyl]-1,2,3,4-tetrahydroisoquinolin-6-yl}-N-(4-hydroxyphenyl)-N,1,2-trimethyl-1H-pyrrole-3-carboxamide], the IC50 in experiment [1] was 9.4 nM; in experiment [2], 47 nM.

For `C[C@@H]1Cc2ccccc2CN1C(=O)c1cc2c(cc1-c1cc(C(=O)N(C)c3ccc(O)cc3)c3n1CCCC3)CN(C(=O)CSc1ccccc1)C2` [Example 171, N-(4-Hydroxyphenyl)-N-methyl-3-{6-[(3R)-3-methyl-1,2,3,4-tetrahydroisoquinoline-2-carbonyl]-2-[2-(phenylsulfanyl)acetyl]-2,3-dihydro-1H-isoindol-5-yl}-5,6,7,8-tetrahydroindolizine-1-carboxamide], the IC50 came to 5.1 nM in experiment [1] and 63 nM in experiment [2].

Regarding `Cc1c(C(=O)N(C)c2ccc(O)cc2)cc(-c2cc3c(cc2C(=O)N2Cc4ccccc4C[C@H]2CN2CCOCC2)CN(C(=O)Oc2ccc(C(=O)O)cc2)CC3)n1C` [Example 721, 4-(6-{4-[(4-Hydroxyphenyl)(methyl)carbamoyl]-1,5-dimethyl-1H-pyrrol-2-yl}-7-[(3S)-3-(morpholin-4-ylmethyl)-1,2,3,4-tetrahydroisoquinoline-2-carbonyl]-1,2,3,4-tetrahydroisoquinoline-2-carbonyloxy)benzoic acid], the values for the IC50 in experiment [1] and in experiment [2] were 4.9 nM and above 150 nM, respectively.

On to `C[C@@H]1Cc2ccccc2CN1C(=O)c1cc2c(cc1-c1cc(C(=O)N(C)c3ccc(O)cc3)c3n1CCCC3)CN(C(=O)N1CCC(c3ccccc3)C1)C2` (stereo partly drawn) [Example 66, N-(4-Hydroxyphenyl)-N-methyl-3-{6-[(3R)-3-methyl-1,2,3,4-tetrahydroisoquinoline-2-carbonyl]-2-(3-phenylpyrrolidine-1-carbonyl)-2,3-dihydro-1H-isoindol-5-yl}-5,6,7,8-tetrahydroindolizine-1-carboxamide], for which the results for the 50% inhibitory concentration (IC50) in experiment [1] and in experiment [2] were 16 nM and 80 nM, respectively.

For `C[C@@H]1Cc2ccccc2CN1C(=O)c1cc2c(cc1-c1cc(C(=O)N(C)c3ccc(O)cc3)c3n1CCCC3)CN(C(=O)COc1ccc(Cl)cc1)C2` [Example 49, 3-{2-[2-(4-Chlorophenoxy)acetyl]-6-[(3R)-3-methyl-1,2,3,4-tetrahydroisoquinoline-2-carbonyl]-2,3-dihydro-1H-isoindol-5-yl}-N-(4-hydroxyphenyl)-N-methyl-5,6,7,8-tetrahydroindolizine-1-carboxamide], the figures for the IC50 in experiment [1] and in experiment [2] were 23 nM and 58 nM, respectively.

Regarding `COc1ccccc1OC(=O)N1CCc2cc(-c3cc(C(=O)N(C)c4ccc(O)cc4)c4n3CCCC4)c(C(=O)N3Cc4ccccc4C[C@H]3CN3CCOCC3)cc2C1` [Example 128, 2-Methoxyphenyl 6-{1-[(4-hydroxyphenyl)(methyl)carbamoyl]-5,6,7,8-tetrahydroindolizin-3-yl}-7-[(3S)-3-(morpholin-4-ylmethyl)-1,2,3,4-tetrahydroisoquinoline-2-carbonyl]-1,2,3,4-tetrahydroisoquinoline-2-carboxylate], the half-maximal inhibitory concentration (IC50) in experiment [1] stood at 3.5 nM; in experiment [2], 8.2 nM.

For the compound `Cc1c(C(=O)N(C)c2ccc(O)cc2)cc(-c2cc3c(cc2C(=O)N2Cc4ccccc4C[C@H]2CN2CCOCC2)CN(C(=O)Oc2ccc(Cl)cc2)CC3)n1C` [Example 140, 4-Chlorophenyl 6-{4-[(4-hydroxyphenyl)(methyl)carbamoyl]-1,5-dimethyl-1H-pyrrol-2-yl}-7-[(3S)-3-(morpholin-4-ylmethyl)-1,2,3,4-tetrahydroisoquinoline-2-carbonyl]-1,2,3,4-tetrahydroisoquinoline-2-carboxylate], the figures for the IC50 in experiment [1] and in experiment [2] were 6.6 nM and 4 nM, respectively.

As for `CN(C(=O)c1cc(-c2cc3c(cc2C(=O)N2Cc4ccccc4C[C@H]2CN2CCOCC2)CN(C(=O)Cc2ccccc2)C3)n2c1CCCC2)c1ccc(O)cc1` [Example 8, N-(4-Hydroxyphenyl)-N-methyl-3-{6-[(3S)-3-(morpholin-4-ylmethyl)-1,2,3,4-tetrahydroisoquinoline-2-carbonyl]-2-(2-phenylacetyl)-2,3-dihydro-1H-isoindol-5-yl}-5,6,7,8-tetrahydroindolizine-1-carboxamide; hydrochloride salt], the values for the concentration for half-maximal inhibition (IC50) in experiment [1] and in experiment [2] were 7.3 nM and 98 nM, respectively.

Turning to `Cc1c(C(=O)N(C)c2ccc(O)cc2)cc(-c2cc3c(cc2C(=O)N2Cc4ccccc4C[C@H]2C)CN(C(=O)CN2CCCCC2)CC3)n1C` [Example 799, N-(4-Hydroxyphenyl)-N,1,2-trimethyl-5-{7-[(3R)-3-methyl-1,2,3,4-tetrahydroisoquinoline-2-carbonyl]-2-[2-(piperidin-1-yl)acetyl]-1,2,3,4-tetrahydroisoquinolin-6-yl}-1H-pyrrole-3-carboxamide], the figures for the IC50 in experiment [1] and in experiment [2] were 15 nM and above 150 nM, respectively.

On to `Cc1c(C(=O)N(C)c2ccccc2)cc(-c2cc3c(cc2C(=O)N2Cc4ccccc4C[C@H]2C)CN(C(=O)Cc2ccc(C#N)cc2)CC3)n1C` [Example 150, 5-{2-[2-(4-Cyanophenyl)acetyl]-7-[(3R)-3-methyl-1,2,3,4-tetrahydroisoquinoline-2-carbonyl]-1,2,3,4-tetrahydroisoquinolin-6-yl}-N,1,2-trimethyl-N-phenyl-1H-pyrrole-3-carboxamide], for which the half-inhibitory concentration (IC50) in experiment [1] came out at 4.3 nM; in experiment [2], 16 nM.

Consider `C[C@@H]1Cc2ccccc2CN1C(=O)c1cc2c(cc1-c1cc(C(=O)N(C)c3ccc(O)cc3)c3n1CCCC3)CCN(C(=O)Cc1ccc(N3CCN(C)CC3)cc1)C2` [Example 97, N-(4-Hydroxyphenyl)-N-methyl-3-{7-[(3R)-3-methyl-1,2,3,4-tetrahydroisoquinoline-2-carbonyl]-2-{2-[4-(4-methylpiperazin-1-yl)phenyl]acetyl}-1,2,3,4-tetrahydroisoquinolin-6-yl}-5,6,7,8-tetrahydroindolizine-1-carboxamide], for which the results for the half-maximal inhibitory concentration (IC50) in experiment [1] and in experiment [2] were 4.9 nM and 15 nM, respectively.
